Literature values in patent US20230134521A1, “COMPOUNDS FOR METHODS FOR PROMOTING FEMALE REPRODUCTIVE HEALTH THROUGH MEDIATION OF RENIN ANGIOTENSIN FUNCTION” (priority 2021, published 2023).
Ends that are not written are not given here.

Columns and labels:
[1] = tested on: rabbit clitoral cavernosal and vaginal smooth muscle strips; conditions: organ bath; for relaxation of clitoral and vaginal smooth muscle: female rabbit clitoral (cavernosal) and vaginal smooth muscle
[2] = tested on: female sexual health, performance or libido; conditions: doses administered to women
[3] = tested on: pre-menopausal women with SIAD related disorders (hypoactive sexual desire disorder)

## vasoactive intestinal polypeptide (HSDAVFTDNYTRLRKQMAVKKYLNSILN; ends and bridges not checked; UniProt P01282 125-152, looked up) [VIP, nonadrenergic/noncholinergic neurotransmitter]
[1]
  relaxation of clitoral and vaginal smooth muscle: dose-dependent relaxation

## CCCc1nn(C)c2c(=O)[nH]c(-c3cc(S(=O)(=O)N4CCN(C)CC4)ccc3OCC)nc12 [sildenafil]
[1]
  relaxation of clitoral and vaginal smooth muscle: dose-dependent relaxation

## CCCc1nn(C)c2c(=O)[nH]c(-c3cc(S(=O)(=O)N4CCN(C)CC4)ccc3OCC)nc12 [Viagra]
[2]
  improvement to sexual health, performance or libido in women: without improvement

## O=c1[nH]c2ccccc2n1CCN1CCN(c2cccc(C(F)(F)F)c2)CC1 [Flibanserin, 2H-benzimidazol-2-one, 1,3-dihydro-1-[2-[4-[3(tri-fluoromethyl)phenyl]-1-piperazinyl]ethyl]]
[3]; 100 mg daily for a minimum of 28 days
  share of women in whom the benefit was seen: 18%
[3]; human, in vivo
  therapeutic effect on Genitopelvic Pain/Penetration Disorder (vestibulodynia, dyspareunia) or Female Orgasmic Disorder: no therapeutic effect at all
[3]; median baseline about 2-3 SSEs per month, over a six month period
  median placebo-corrected increase in satisfying sexual events (SSEs): 0.5-1.0 SSEs per month

## CCCc1nc(C)c2c(=O)[nH]c(-c3cc(S(=O)(=O)N4CCN(CC)CC4)ccc3OCC)nn12 [Levitra]
[2]
  improvement to sexual health, performance or libido in women: without improvement

## N=C(N)NCCC[C@H](N)C(=O)O [L-arginine]
[1]; rabbit clitoral cavernosal smooth muscle strips
  relaxation of clitoral cavernosal smooth muscle strips in response to NO donors: enhanced relaxation
